{
  "source": "patent US10980776B2",
  "about": "“Synergistic pharmaceutical combination for the treatment of squamous cell carcinoma of head and neck” (Piramal Enterprises Limited, priority 2011, dated 2021)",
  "key": {"FADU cells": {"tested_on": "FADU cells", "test": "CCK-8 cytotoxicity assay, determination of inhibitory concentrations in FADU cells", "assay_type": "cell-based, human", "details": "72 hr", "procedure": "(§1) Logarithmically growing cells were plated at a density of 3×10^3 cells/well and allowed to recover overnight. […] After 72 hours, cell toxicity was determined by CCK-8 (Cell Counting Kit-8) reagent (Dojindo Molecular Technologies, Japan); WST-8 (2-(2-methoxy-4-nitrophenyl)-3-(4-nitrophenyl)-5-(2, 4-disulfophenyl)]-2H-tetrazolium, monosodium salt) assay. In accordance with the manufacturer's instructions, 5 μl/well CCK-8 reagent was added and plates were incubated for 2 hours. The toxicity was determined by measuring the absorbance on Tecan Sapphire multi-fluorescence micro-plate reader (Tecan, Germany, GmbH) at a wavelength of 450 nm corrected to 650 nm and normalized to controls.\n(§2) CCK-8 allows convenient assays using Dojindo's tetrazolium salt, WST [8[(2-(2-methoxy-4-nitrophenyl)-3-(4-nitrophenyl)-5-(2,4-disulfophenyl)-2H-tetrazolium, monosodium salt], which produces a water-soluble formazan dye upon bioreduction in the presence of an electron carrier, 1-Methoxy PMS. CCK-8 solution is added directly to the cells; no pre-mixing of components is required. CCK-8 is a sensitive nonradioactive colorimetric assay for determining the number of viable cells in cell proliferation and cytotoxicity assays. WST-8 is bio-reduced by cellular dehydrogenases to an orange formazan product that is soluble in tissue culture medium. The amount of formazan produced is directly proportional to the number of living cells. The detection sensitivity of cell proliferation assays using WST-8 is higher than assays using the other tetrazolium salts such as MIT, XTT, MTS or WST-1. Optical Density was determined at measurement wavelength of 450 nm and reference wave length of 630 nm.\nThe cells were seeded at a density of 3000 cells/well, in a 200 μL in tissue culture grade 96 well plate and were allowed to recover for 24 hrs in a humidified 5%±0.2 CO2 incubator at 37° C.±0.5° C. […] The final DMSO concentration was 0.5% in wells. Plates were incubated for 48 hrs in humidified 5%±0.2 CO2 incubator at 37±0.5° C. After 48 hrs the plates were removed from CO2 incubator and 5 μL of Cell counting Kit (CCK-8) per well was added. The same plate was kept at 37° C. for 3 hrs, and allowed to come to room temperature. The absorbance at a wavelength of 450 nm was read on Tecan safire reader. The percent cytotoxicity was calculated using the following formula."}, "SCC-25 cells": {"tested_on": "SCC-25 cells", "test": "Combination studies (single and sequential combination dosing), % cytotoxicity in SCC-25 cells", "details": "Homo sapiens, SCC-25, SCC-25; for cytotoxicity at 1.1 µM: single agent at IC50 (compound B 1.1 μM)", "procedure": "as §1, §2\nSorafenib in the following dose of final concentration 0.18 μM and compound A in the following doses of final concentration 0.1 μM, 0.4 μM and 4.1 μM were analyzed in single dose and in all possible combinations of the dose range for the two anticancer agents mentioned above. The sequence of treatment is as follows; the SCC-25 cells were treated with sorafenib for 0 to 24 hrs. At the end of 24 hrs the cells were washed two times with plain MEM (minimum essential media) medium. Fresh MEM with 10% serum (200 μL/well) was added, followed by treatment with compound A from 24 hrs to 96 hrs.\nSorafenib in the following dose of final concentration 0.18 μM and compound B in the following doses of final concentration 0.2 μM, 1.1 μM and 4.8 μM were analyzed in single dose and in all possible combinations of the dose range for the two anticancer agents mentioned above. The sequence of treatment is as follows; the SCC-25 cells were treated with sorafenib for 0 to 24 hrs. At the end of 24 hrs the cells were washed two times with plain MEM medium. Fresh MEM with 10% serum (200 μL/well) was added, followed by treatment with compound B from 24 hrs to 96 hrs.\nLapatinib in the following dose of final concentration 0.2 μM and compound A in the following doses of final concentration 0.2 μM, 0.5 μM and 3.3 μM were analyzed in single dose and in all possible combinations of the dose range for the two drugs mentioned above. The sequence of treatment is as follows; the SCC-25 cells were treated with lapatinib for 0 to 24 hrs. At the end of 24 hrs the cells were washed two times with plain MEM medium. Fresh MEM with 10% serum (200 μL/well) was added, followed by treatment with compound A from 24 hrs to 96 hrs.\nLapatinib in the following dose of final concentration 0.2 μM and compound B in the following doses of final concentration 0.2 μM, 1.1 μM and 4.8 μM were analyzed in single dose and in all possible combinations of the dose range for the two drugs mentioned above. The sequence of treatment is as follows; the SCC-25 cells were treated with lapatinib for 0 to 24 hrs. At the end of 24 hrs the cells were washed two times with plain MEM medium. Fresh MEM with 10% serum (200 μL/well) was added, followed by treatment with compound A from 24 hrs to 96 hrs."}},
  "note": "pIC50: −log10 of the molar value.",
  "data": [
    {"smiles": "CN1CC[C@@H](c2c(O)cc(O)c3c(=O)cc(-c4ccc(C(F)(F)F)cc4Cl)oc23)[C@@H]1CO.Cl", "note": "[Compound B, (+)-trans-2-(2-chloro-4-trifluoromethyl-phenyl)-5,7-dihydroxy-8-(2-hydroxymethyl-1-methyl-pyrrolidin-3-yl)-chromen-4-one hydrochloride]", "values": [
      {"measurement": "IC30", "setting": "FADU cells", "result": 2.3, "unit": "µM"},
      {"measurement": "IC70", "setting": "FADU cells", "result": 9.6, "unit": "µM"},
      {"measurement": "pIC50", "setting": "FADU cells; Homo sapiens", "result": 5.39},
      {"measurement": "IC90", "setting": "FADU cells; Homo sapiens", "result": 31.4, "unit": "µM"},
      {"measurement": "cytotoxicity at 0.2 µM", "setting": "SCC-25 cells; single agent at IC30 (lapatinib 0.2 μM; compound B 0.2 μM)", "result": 16, "unit": "%"},
      {"measurement": "cytotoxicity at 0.2 µM", "setting": "SCC-25 cells; single agent at IC30 (sorafenib 0.18 μM; compound B 0.2 μM)", "result": 16, "unit": "%"},
      {"measurement": "cytotoxicity at 1.1 µM", "setting": "SCC-25 cells; lapatinib study", "result": 19, "unit": "%"},
      {"measurement": "cytotoxicity at 1.1 µM", "setting": "SCC-25 cells; sorafenib study", "result": 19, "unit": "%"}
    ]}
  ]
}
